Source: patent publication US20220331348A1, “METHOD OF PREPARING PENTACYCLIC TRITERPENOID SAPONINS AND DRUG COMPOSITION” (CHINA PHARMACEUTICAL UNIVERSITY, priority 2019, published 2022)

Columns and labels:
[1] = test system: CCl4-induced hepatic fibrosis mice; experiment: CCl4-induced hepatic fibrosis mice; assay type: in vivo, mouse; settings: for MMP2 gene expression / TGF-β gene expression / collagen 1 gene expression: CCl4-induced hepatic fibrosis mice, 5 mg/Kg, n = 8
Method: Animal: 32 C57BL/6J male mice of SPF level with 25 g were purchased from Beijing Vital River Laboratory Animal Technology Co., Ltd. All the animals maintained 12 h alternative circadian rhythm with free access to food.
Reagent: the ginsenoside Ro was purchased from Shanghai Boka Chemistry Technology Co., Ltd; CCl4 was purchased from sigma Company; and sunflower seed oil was purchased from Nanjing Yuanye Biotechnology Co., Ltd.
The mice were randomly divided into 4 groups based on weights: a blank control group (CTL), a model group (CCl4), a ginsenoside Ro low-dosage group (Low) (5 mg/kg) and a ginsenoside Ro high-dosage group (High) (10 mg/kg), totally 4 groups (with 8 mice each).
A modeling mode was that the mice were given with a CCl4-contained sunflower seed oil solution (with a CCl4 content of 25%, v/v) in a dosage of 2mL/kg by intraperitoneal injection, and the mice in the control group were injected with a corresponding dosage of the sunflower seed oil solution two times per week. From experiment day 1 onward, the mice in the control group were given with a CMC-Na solution with the mass fraction of 0.5% intragastrically every day and with sunflower seed oil two times per week by intraperitoneal injection; the mice in the model group were given with the CMC-Na solution with the mass fraction of 0.5% intragastrically every day and with the CCl4-contained sunflower seed oil solution two times per week by intraperitoneal injection; the mice in the ginsenoside Ro low-dosage group (Low) were given with 5 mg/kg of the ginsenoside Ro intragastrically every day and with a CCl4 solution two times per week by intraperitoneal injection; and the mice in the ginsenoside Ro high-dosage group (High) were given with 10 mg/kg of the ginsenoside Ro intragastrically every day and with the CCl4-contained sunflower seed oil solution two times per week by intraperitoneal injection. Administration was conducted for a total of 4 weeks.
The mice were deprived of food but not water for 12 h in advance; and the next morning, blood was taken from eyeballs, the mice were sacrificed, and livers were harvested. Right liver lobule tissues were fixed with 4% paraformaldehyde for HE stained slicing. The rest liver tissues were divided into 3 parts, which were snap-frozen in liquid nitrogen for subsequent detection of other indexes.
Whole blood was left to still standing for 2 h at room temperature, centrifugation was conducted for 15 min at 3000 rpm, and a serum was collected and sent to Pathologic Department of Hospital of Integrated Traditional Chinese and Western Medicine in Jiangsu Province for determination of levels of glutamic oxalacetic transaminase (AST) and glutamic-pyruvic transaminase (ALT) in the serum with a full-automatic biochemical analyzer.
Pretreated tissues were sent to Google Biotechnology Co., Ltd for preparing HE stained slices.
6. Extraction of Liver Tissue RNA and q-PCR Detection Liver tissues preserved at −80° C. were put in the liquid nitrogen, about 10 mg of the liver tissues were quickly dissected out, about 500 μL of a precooled Trizol reagent was added, the tissues were homogenized with the homogenizer and then left to lyse on the ice for 15 min, 100 μL of chloroform was added for vigorous shaking for 15 s, and a product was put on the ice for 10 min and then was subjected to centrifugation for 15 min at 4° C. and 12000 rpm. An upper aqueous phase was transferred to a clean 1.5 mL EP tube, […] of isopropanol was added for RNA precipitation, the EP tube was put on the ice for 10 min and then was subjected to centrifugation for 10 min at 4° C. and 12000 rpm. The supernate was discarded, precipitates were washed one time with 75% ethyl alcohol, a supernate was discarded after centrifugation, and precipitates of
RNA dissolved with the water were treated with 40 mL of DEPC. […]

[2] = test system: TNBS modeled Crohn's disease model mice; experiment: 2,4,6-trinitrobenzene sulfonic acid (TNBS) modeled Crohn's disease model mice; assay type: in vivo, mouse; settings: for colon length of the treatment group compared with the control group / expression level of inflammatory factor IL-1β / expression level of inflammatory factor TNF-α: dose not given; for expression level of inflammatory factor IL-1β / expression level of inflammatory factor TNF-α: vs model group
Method: C57BL/6 male mice with 6-8 weeks old were selected and randomly divided into a control group, a mode group, a treatment group and a positive control group. Expect for the control group, after the mice in the rest groups anesthetized with isoflurane, hoses were carefully inserted into colons of the mice from anuses, and […] of 1.5% 2,4,6-trinitrobenzene sulfonic acid (TNBS) was slowly injected. Before the hoses were pulled out, the mice were placed upside down for 1 min. First intragastric administration was conducted at the day of enema treatment, the mice in the control group and the model group were orally administered with carboxymethyl cellulose sodium as a placebo, the mice in the treatment group were orally administered with the ziyuglycoside II (purchased from Shanghai Boka Chemistry Technology Co., Ltd) (with a dosage of 5 mg/kg), and the mice in the positive drug group were orally administered with 5-aminosalicylic acid as a clinical drug (5-ASA, purchased from Shanghai Sangon Biological Engineering Co., Ltd) (with a dosage of 100 mg/kg). Administration was continuously conducted for 7 days. In the administration process, the states of the mice were observed every day, and weight changes of the mice were recorded.
Differences in weight change of the mice in various groups were compared, from which, ziyuglycoside II has the treatment effect on the 2, 4, 6-trinitrobenzene sulfonic acid (TNBS) modeled Crohn's disease model mice.
The above mice were sacrificed by cervical dislocation at day 8, colon tissues were harvested, lengths of the colon tissues were measured for statistical summary, and differences in colon length of various groups were compared, from which, the ziyuglycoside II has significant treatment effect on the Crohn's disease model mice. […] 10 mg of proximal rectum segments of the colon tissues of the above mice were selected, PBS was added for homogenization, and centrifugation was conducted for taking a supernate. The supernate was subjected to ELISA detection, and protein quantification was conducted for inflammatory factors TNF- and IL-1. […] Myeloperoxidase (MPO) is an enzyme specific to neutrophils, and the amount of the neutrophils in the intestinal tracts may be reflected by detecting the MPO level. 5 mg of proximal rectum segments of the colon tissues of the above mice were selected, PBS was added for homogenization, and the content of the MPO in a homogenate was detected with a MPO kit (purchased from Nanjing Jiancheng Bioengineering Institute). […] Therefore, the ziyuglycoside II is expected to be useful for preparing the drug for preventing or treating the inflammatory bowel diseases such as the Crohn's disease.

[3] = 5 mg/kg orally, vs model group (FIG. 14 A)
[4] = CCl4 mice liver, 5 mg/kg and 10 mg/kg, 4 weeks, q-PCR (FIG. 9)
[5] = CCl4 mice, low-dosage 5 mg/kg and high-dosage 10 mg/kg intragastrically every day, 4 weeks (FIG. 8)

| SMILES | MMP2 gene expression [1] | TGF-β gene expression [1] | collagen 1 gene expression [1] | hepatic fibrosis induced by CCl4 ([1]; CCl4 mice, summary in words) | colon length of the treatment group compared with the control group [2] | expression level of inflammatory factor IL-1β [2] | expression level of inflammatory factor TNF-α [2] | content of the MPO in colon tissues ([2]; 5 mg/kg (FIG. 14 B)) | drop scope of weight loss ([2]; 5 mg/kg orally, 7 days, vs model group (FIG. 13 A)) | colon lengths ([2]; 5 mg/kg orally, day 8, vs model group (FIG. 13 B)) | expression level of inflammatory factor IL-1 in colon tissue (ELISA) [2, 3] | expression level of inflammatory factor TNF- in colon tissue (ELISA) [2, 3] | mRNA expression level of -SMA [1, 4] | mRNA expression level of MMP2 [1, 4] | mRNA expression level of TGF [1, 4] | mRNA expression level of collagen 1 [1, 4] | level of the ALT in the serum [1, 5] | level of the AST in the serum [1, 5] | inflammatory responses of hepatic fibrosis animal models ([1]; CCl4 mice, summary in words) |
| --- | --- | --- | --- | --- | --- | --- | --- | --- | --- | --- | --- | --- | --- | --- | --- | --- | --- | --- | --- |
| C[C@@H]1O[C@@H](O[C@H]2[C@H](O[C@H]3CC[C@@]4(C)[C@@H](CC[C@]5(C)[C@@H]4CC=C4[C@@H]6CC(C)(C)CC[C@]6(C(=O)O)CC[C@]45C)[C@]3(C)CO)OC[C@H](O)[C@@H]2O)[C@H](O)[C@H](O)[C@H]1O [(X), α-hederin] | 6.37 ± 5.73 fold induction compared with the control group | 2.75 ± 0.99 fold induction compared with the control group | 7.93 ± 2.28 fold induction compared with the control group | effectively inhibit | nearly no difference | significantly lower than those of the model group | significantly lower than those of the model group | – | – | – | – | – | – | – | – | – | – | – | – |
| C[C@@H]1CC[C@]2(C(=O)O)CC[C@]3(C)C(=CC[C@@H]4[C@@]5(C)CC[C@H](O[C@@H]6OC[C@H](O)[C@H](O)[C@H]6O)C(C)(C)[C@@H]5CC[C@]43C)[C@@H]2[C@]1(C)O [(XIII), ziyuglycoside II] | 7.38 ± 3.48 fold induction compared with the control group | 3.03 ± 0.76 fold induction compared with the control group | 8.16 ± 3.37 fold induction compared with the control group | effectively inhibit | nearly no difference | significantly lower than those of the model group | significantly lower than those of the model group | significantly lowered | obviously lower than that of the model group | significantly larger than those of the model group | significantly lower than those of the model group | significantly lower than those of the model group | – | – | – | – | – | – | – |
| CC1(C)CC[C@]2(C(=O)O[C@@H]3O[C@H](CO)[C@@H](O)[C@H](O)[C@H]3O)CC[C@]3(C)C(=CC[C@@H]4[C@@]5(C)CC[C@H](O[C@@H]6O[C@H](C(=O)O)[C@@H](O)[C@H](O)[C@H]6O[C@@H]6O[C@H](CO)[C@@H](O)[C@H](O)[C@H]6O)C(C)(C)[C@@H]5CC[C@]43C)[C@@H]2C1 [(I), ginsenoside Ro] | – | – | – | significantly inhibit | nearly no difference | significantly lower than those of the model group | significantly lower than those of the model group | – | – | – | – | – | significantly lowered | significantly lowered | significantly lowered | significantly lowered | significantly lowered | significantly lowered | significantly inhibit |
| C[C@@H]1O[C@@H](O[C@H]2[C@H](O[C@H]3CC[C@@]4(C)[C@@H](CC[C@]5(C)[C@@H]4CC=C4[C@@H]6CC(C)(C)CC[C@]6(C(=O)O[C@@H]6O[C@H](CO[C@@H]7O[C@H](CO)[C@@H](O[C@@H]8O[C@@H](C)[C@H](O)[C@@H](O)[C@H]8O)[C@H](O)[C@H]7O)[C@@H](O)[C@H](O)[C@H]6O)CC[C@]45C)[C@]3(C)CO)OC[C@H](O)[C@@H]2O)[C@H](O)[C@H](O)[C@H]1O [(XI), hederacoside C] | 7.65 ± 4.03 fold induction compared with the control group | 2.96 ± 1.01 fold induction compared with the control group | 8.07 ± 3.27 fold induction compared with the control group | effectively inhibit | nearly no difference | significantly lower than those of the model group | significantly lower than those of the model group | – | – | – | – | – | – | – | – | – | – | – | – |
| C[C@@H]1CC[C@]2(C(=O)O[C@@H]3O[C@H](CO)[C@@H](O)[C@H](O)[C@H]3O)CC[C@]3(C)C(=CC[C@@H]4[C@@]5(C)CC[C@H](O[C@@H]6OC[C@H](O)[C@H](O)[C@H]6O)C(C)(C)[C@@H]5CC[C@]43C)[C@@H]2[C@]1(C)O [(XII), ziyuglycoside I] | 8.38 ± 3.86 fold induction compared with the control group | 2.91 ± 1.10 fold induction compared with the control group | 7.65 ± 2.43 fold induction compared with the control group | effectively inhibit | nearly no difference | significantly lower than those of the model group | significantly lower than those of the model group | – | – | – | – | – | – | – | – | – | – | – | – |
